We go through six molecules from patent publication US20240376154A1, “BIS-INTERCALATING PEPTIDES, CONJUGATES AND METHODS OF USE” (ZYMEWORKS BC INC., priority 2023, published 2024).

Data set [1] deals with IGROV-1 (Ovarian Adenocarcinoma). Description: Cell proliferation assay, IGROV-1. The data set is classed as cell-based. The note with it: 5 nights. How it is done:
(§1) The ability of Compound 419 and Compound 424 to inhibit proliferation of tumour cells in vitro was measured by a cell proliferation assay using the following tumour cell lines: IGROV-1 (Ovarian Adenocarcinoma, NCI), JEG-3 (Placental Choriocarcinoma, AddexBio (C0030003)) and OVKATE (Ovarian Adenocarcinoma, Japanese Collection of Research Bioresources (JCRB) (JCRB1044)).
(§2) Cell lines were cultured as per vendor instructions prior to running the cell proliferation assay. Briefly, on the day prior to adding compound, cells (50 μL/well, 1000 cells/well) were added to sterile, tissue culture (TC)-treated, 384-well plates (ThermoFisher Scientific, Catalogue #164610) and incubated overnight at 37° C./5% CO2 to allow the cells to adhere to the plate surface. The next day, in a sterile, V-bottom, 96-well plate, compounds were titrated 1:3 in complete growth medium, creating a 10-point dose response titration with compounds at 3.5-times the desired final concentration. Control wells with no compound (growth medium only) were included for each compound titration in 96-well dilution plates. 20 uL from the 10-point dose response titration were added to the 384-well plate containing the seeded cells, in duplicate. Plates were incubated at 37° C./5% CO2 for 5 nights. After 5-night incubation, cell viability was quantified by the addition of 15 uL/well of CellTiter-Glo® (Promega, Catalogue #G7572) and incubation at room temperature for 30 minutes. After 30-minute incubation, luminescence was measured using a microplate luminometer (BioTek® Synergy™ H1 Microplate Reader). The resulting relative light units (RLU values) were converted to % cytotoxicity using the growth medium only control wells mentioned above:
(§3) Data was fit into 4-parameter logistic to curves using non-linear regression methods available with GraphPad Prism software (GraphPad Software, Inc.).

Data set [2] has as its system JEG-3 (Placental Choriocarcinoma). Description: Cell proliferation assay, JEG-3. The data set is classed as cell-based. The note with it: 5 nights. How it is done: as §1, §2, §3
Data set [3] deals with OVKATE (Ovarian Adenocarcinoma). Description: Cell proliferation assay, OVKATE. Format: cell-based. The note with it: 5 nights. How it is done:
as §1, §2, §3

The subject of data set [4] is tumour cells (at least 4 of a panel of ovarian, breast, lung, pancreatic, placenta, colon cell lines). Briefly: In vitro cytotoxicity (cell proliferation, CellTiter-Glo), average over tumour cell line panel. Format: cell-based. The note with it: average pIC50 on all cell lines tested; 5 nights incubation; CellTiter-Glo. A digest of the protocol: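 Each cell line seeded at ~1000 cells/well and left to adhere overnight, then given a 10-point 1:3 compound titration for 5 nights at 37° C, 5% CO2. Viability read by CellTiter-Glo luminescence; IC50 per line, reported as pIC50 averaged across at least 4 lines.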
For orientation: ATP-based viability assays read luminescence as a measure of living cells.

The nature of data set [5]: Lipophilicity by experimental HPLC retention time. The data set is classed as physicochemical. The note with it: HPLC retention time as measure of lipophilicity; C18, 10 to 90% CH3CN/H2O with 0.1% FA over 25 min. The gist of the method:
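Reversed-phase HPLC with diode array detection on a Kinetex EVO C18 150×4.6, 2.6 μm column. Gradient 10 to 90% CH3CN/H2O with 0.1% FA over 25 min; retention time serves as the lipophilicity measure.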

Data set [6] is described as follows: Stability in female mouse plasma. The settings on record: 37° C., 24 h. Format: in vitro ADME. How it is done: The stability of exemplary compounds of general Formula I in mouse plasma was evaluated as follows.
Compounds were incubated at 1 μM in duplicate in female mouse plasma, 250 μL final volume, at 37° C. for 24 h. Aliquots were sampled at 0, 15, 30, 60, 120, 240, 480 and 1440 min. Proteins were precipitated by addition of 5 volumes of cold methanol. After centrifugation 10000×g for 10 min, the residual concentration of compound in the supernatant was measured using an appropriate LC-MS/MS method. The measured concentrations were expressed as a function of time through a one-phase decay exponential regression calculated using GraphPad Prism software (GraphPad Software, Inc.) to generate the plasma half-life for each compound.

Another data set has as its system herring sperm DNA. Description: DNA melting temperature by differential scanning calorimetry (DSC). Format: binding. The note with it: DSC; herring sperm DNA; DNA melting temperature = 68° C. The gist of the method:
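Herring sperm DNA at 1 mg/mL (1.4 mM base pair) in BPE buffer, pH 7.0, equilibrated with test article (10 mM DMSO stock) for >3 h, insolubles removed by centrifugation. Scanned 25 to 110° C. at 1° C./min; melting temperature taken from the DSC melting curve.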
(In general: DSC measures the heat that a sample takes up or gives off during a temperature scan.)

The conditions of data set [7]: amide bond; 32-membered ring.

Usually EC50 stands for the concentration needed to bring the measured effect to its halfway point. Take `CCCN1CC(=O)N(C)[C@@H](C(C)C)C(=O)NC[C@@H](NC(=O)c2nc3ccccc3cc2O)C(=O)N2CCCC[C@H]2C(=O)NCC(=O)N(CCC)CC(=O)N(C)[C@@H](C(C)C)C(=O)NC[C@@H](NC(=O)c2nc3ccccc3cc2O)C(=O)N2CCCC[C@H]2C(=O)NCC1=O` [Compound 419, N,N′-((7R,11S,19aS,26R,30S,38aS)-11,30-diisopropyl-12,31-dimethyl-6,10,13,16,19,25,29,32,35,38-decaoxo-15,34-dipropylhexatriacontahydro-2H,6H-dipyrido[1,2-a:1′,2′-q][1,4,7,10,13,17,20,23,26,29]decaazacyclodotriacontine-7,26-diyl)bis(3-hydroxyquinoline-2-carboxamide)]: the 50% effective concentration (EC50) in data set [1] was 11.5 nM; in data set [2], 6.9 nM; in data set [3] it was 24.1 nM.
Take `CC(C)[C@H]1C(=O)NC[C@@H](NC(=O)c2nc3ccccc3cc2O)C(=O)N2CCCC[C@H]2C(=O)NCC(=O)N(C(C)C)CC(=O)N(C)[C@@H](C(C)C)C(=O)NC[C@@H](NC(=O)c2nc3ccccc3cc2O)C(=O)N2CCCC[C@H]2C(=O)NCC(=O)N(C(C)C)CC(=O)N1C` [Compound 424, N,N′-((7R,11S,19aS,26R,30S,38aS)-11,15,30,34-tetraisopropyl-12,31-dimethyl-6,10,13,16,19,25,29,32,35,38-decaoxohexatriacontahydro-2H,6H-dipyrido[1,2-a:1′,2′-q][1,4,7,10,13,17,20,23,26,29]decaazacyclodotriacontine-7,26-diyl)bis(3-hydroxyquinoline-2-carboxamide)]: the concentration giving a half-maximal response (EC50) in data set [1] stood at 54 nM; in data set [2], 55.7 nM.
`C[C@H]1NC(=O)[C@@H]2CCCCN2C(=O)CN(C)C(=O)CNC(=O)[C@@H]2CCCCN2C(=O)[C@H](NC(=O)c2nc3ccccc3cc2O)[C@@H](C)NC(=O)[C@@H]2CCCCN2C(=O)CN(C)C(=O)CNC(=O)[C@@H]2CCCCN2C(=O)[C@@H]1NC(=O)c1nc2ccccc2cc1O` [Quinaldopeptin, quinaldopeptin, reference compound]: the “pIC50 (average)” value in data set [4] is given as 8.0. Moreover, in data set [5], the “HPLC” value was 16.7 min. The EC50 in data set [1] amounted to 6.5 nM; in data set [2], 9.8 nM; in data set [3], 14.8 nM. Further, in data set [6] (1 μM), the “plasma stability (in words)” value was “stability over the course of the experiment”.
In general, half-life refers to the time in which the quantity being followed falls by half. Lower therefore signals fast loss. For the molecule `CC(C)[C@H]1C(=O)OC[C@@H](NC(=O)c2nc3ccccc3cc2O)C(=O)N2CCCC[C@H]2C(=O)NCC(=O)N(C)CC(=O)N(C)[C@@H](C(C)C)C(=O)OC[C@@H](NC(=O)c2nc3ccccc3cc2O)C(=O)N2CCCC[C@H]2C(=O)NCC(=O)N(C)CC(=O)N1C` [Sandramycin, N,N′-((7R,11S,19aS,26R,30S,38aS)-11,30-diisopropyl-12,15,31,34-tetramethyl-6,10,13,16,19,25,29,32,35,38-decaoxodotriacontahydro-2H,6H,10H,25H-dipyrido[2,1-b1:2′,1′-l][1,17]dioxa[4,7,10,13,20,23,26,29]octaazacyclodotriacontine-7,26-diyl)bis(3-hydroxyquinoline-2-carboxamide), reference compound], the “pIC50 (average)” value in data set [4] was determined as 9.0. The “DNA melt (° C.)” value in the data set with herring sperm DNA was found to be 102 °C. Further, the “HPLC” value in data set [5] turned out to be 21.6 min. The EC50 in data set [1] worked out at 1.6 nM; in data set [2], 3.3 nM; in data set [3], 0.8 nM. For the same molecule, the half-life at 1 μM in data set [6] (female, mouse, plasma) was 5.9 h.
In the case of “Benzyl tert-butyl ((7R,11S,19aS,26R,30S,38aS)-11,30-diisopropyl-15,34-dimethyl-6,10,13,16,19,25,29,32,35,38-decaoxohexatriacontahydro-2H,6H-dipyrido[1,2-a:1′,2′-q][1,4,7,10,13,17,20,23,26,29]decaazacyclodotriacontine-7,26-diyl)dicarbamate”, the ring closure, yield after HPLC in data set [7] was 20%.
On the same count and under the same terms, the result for “Tert-butyl (4-nitrobenzyl) ((7R,10aS,22aS,29R,32aS,44aS)-18,40-dimethyl-6,16,19,22,28,32,38,41,44-nonaoxodotetracontahydro-6H-tetrapyrido[2,1-b1: 2′,1′-c: 2″,1″-1:2′″,1′″-s][1]oxa[4,7,10,13,17,20,23,26,29]nonaazacyclodotriacontine-7,29-diyl)dicarbamate” reads 23%.
